Measurements from US11053213B2, “Pharmaceutical compounds” (ALMAC DISCOVERY LIMITED, priority 2016, dated 2021).
pIC50: −log10 of the molar value.

Molecular target: USP19 (Homo sapiens (Human), UniProt O94966)
Experiment: USP19 activity assay (fluorescence polarisation, Ubiquitin-Lys-TAMRA substrate)
Type: biochemical
Conditions: full-length USP19 2.5 nM, 30 min pre-incubation, Ub substrate 500 nM; average of at least two duplicate experiments

Chain of USP19 (O94966 whole entry): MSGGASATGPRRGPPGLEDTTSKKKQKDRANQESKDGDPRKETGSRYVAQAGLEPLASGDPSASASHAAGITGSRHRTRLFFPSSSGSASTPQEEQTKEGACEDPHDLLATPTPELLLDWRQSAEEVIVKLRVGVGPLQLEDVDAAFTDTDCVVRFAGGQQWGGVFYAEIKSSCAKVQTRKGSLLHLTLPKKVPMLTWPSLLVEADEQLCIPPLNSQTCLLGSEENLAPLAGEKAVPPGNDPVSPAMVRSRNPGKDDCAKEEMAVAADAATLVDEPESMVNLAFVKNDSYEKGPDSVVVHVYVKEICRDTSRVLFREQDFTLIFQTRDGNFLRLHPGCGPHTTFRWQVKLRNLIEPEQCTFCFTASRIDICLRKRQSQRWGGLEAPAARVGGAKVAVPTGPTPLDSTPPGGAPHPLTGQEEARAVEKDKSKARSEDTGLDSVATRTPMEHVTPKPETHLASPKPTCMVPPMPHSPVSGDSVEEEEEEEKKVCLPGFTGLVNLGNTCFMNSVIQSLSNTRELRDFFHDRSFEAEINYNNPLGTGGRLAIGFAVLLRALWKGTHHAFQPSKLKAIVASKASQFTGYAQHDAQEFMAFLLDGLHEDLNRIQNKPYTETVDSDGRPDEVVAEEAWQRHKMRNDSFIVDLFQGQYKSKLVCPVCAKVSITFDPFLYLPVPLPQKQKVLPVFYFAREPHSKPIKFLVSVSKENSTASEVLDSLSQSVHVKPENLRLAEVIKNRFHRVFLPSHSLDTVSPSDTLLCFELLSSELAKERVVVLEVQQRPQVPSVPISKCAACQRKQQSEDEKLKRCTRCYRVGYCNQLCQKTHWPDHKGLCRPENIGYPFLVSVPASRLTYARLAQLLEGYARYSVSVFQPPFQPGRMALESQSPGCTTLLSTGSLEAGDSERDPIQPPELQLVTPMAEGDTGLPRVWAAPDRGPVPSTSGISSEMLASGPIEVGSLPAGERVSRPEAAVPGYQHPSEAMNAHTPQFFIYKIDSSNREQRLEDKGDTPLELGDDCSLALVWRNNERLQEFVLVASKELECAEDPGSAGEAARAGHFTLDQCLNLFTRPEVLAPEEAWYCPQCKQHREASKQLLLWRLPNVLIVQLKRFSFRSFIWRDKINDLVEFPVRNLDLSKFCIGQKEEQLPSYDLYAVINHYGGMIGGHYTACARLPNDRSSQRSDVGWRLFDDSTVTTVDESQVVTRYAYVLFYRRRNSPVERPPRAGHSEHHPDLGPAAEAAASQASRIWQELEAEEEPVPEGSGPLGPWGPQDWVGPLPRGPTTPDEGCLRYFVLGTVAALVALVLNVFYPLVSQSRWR

Compound | pIC50
C[C@H](CC1CCC1)C(=O)N1CC[C@@](O)(Cn2cc(C(=O)N(C)C)c(-c3ccccc3F)cc2=O)C(C)(C)C1 [Example 235, 1-(((S)-1-((R)-3-Cyclobutyl-2-methylpropanoyl)-4-hydroxy-3,3-dimethylpiperidin-4-yl)methyl)-4-(2-fluorophenyl)-N,N-dimethyl-6-oxo-1,6-dihydropyridine-3-carboxamide] | 5.30 to 6.30
C[C@H](CC1CCC1)C(=O)N1CC[C@@](O)(Cn2cc(C(=O)N3CCNCC3)c(-c3ccccc3F)cc2=O)C(C)(C)C1 [Example 236, 1-(((S)-1-((R)-3-Cyclobutyl-2-methylpropanoyl)-4-hydroxy-3,3-dimethylpiperidin-4-yl)methyl)-4-(2-fluorophenyl)-5-(piperazine-1-carbonyl)pyridin-2(1H)-one] | > 6.30
C[C@H](CC1CCCCC1)C(=O)N1CCC(O)(Cn2cc(C(=O)N(C)C)c(-c3ccccc3)cc2=O)C2(CCCCC2)C1 (stereo partly drawn) [Example 237, 1-((2-((R)-3-Cyclohexyl-2-methylpropanoyl)-5-hydroxy-2-azaspiro[5.5]undecan-5-yl)methyl)-N,N-dimethyl-6-oxo-4-phenyl-1,6-dihydropyridine-3-carboxamide] | > 6.30
C[C@H](CC1CCCCC1)C(=O)N1CCC(O)(Cn2cc(C(=O)N3CCNCC3)c(-c3ccccc3)cc2=O)C2(CCCCC2)C1 (stereo partly drawn) [Example 238, 1-((2-((R)-3-Cyclohexyl-2-methylpropanoyl)-5-hydroxy-2-azaspiro[5.5]undecan-5-yl)methyl)-4-phenyl-5-(piperazine-1-carbonyl)pyridin-2(1H)-one] | > 6.30
C[C@H](CC1CCCCC1)C(=O)N1CC[C@@](O)(Cn2cc(C(=O)N3CCOCC3)c(-c3ccccc3)cc2=O)C2(CCCC2)C1 [Example 239, 1-(((S)-7-((R)-3-Cyclohexyl-2-methylpropanoyl)-10-hydroxy-7-azaspiro[4.5]decan-10-yl)methyl)-5-(morpholine-4-carbonyl)-4-phenylpyridin-2(1H)-one] | > 6.30
C[C@H](CC1CCCCC1)C(=O)N1CC[C@@](O)(Cn2cc(C(=O)N3CCN(C)CC3)c(-c3ccccc3)cc2=O)C2(CCCC2)C1 [Example 240, 1-(((S)-7-((R)-3-Cyclohexyl-2-methylpropanoyl)-10-hydroxy-7-azaspiro[4.5]decan-10-yl)methyl)-5-(4-methylpiperazine-1-carbonyl)-4-phenylpyridin-2(1H)-one] | > 6.30
C[C@H](CC1CCCCC1)C(=O)N1CCC(O)(Cn2cc(C(=O)O)c(-c3ccccc3)cc2=O)C(C)(C)C1 (stereo partly drawn) [Example 241, 1-((1-((R)-3-Cyclohexyl-2-methylpropanoyl)-4-hydroxy-3,3-dimethylpiperidin-4-yl)methyl)-6-oxo-4-phenyl-1,6-dihydropyridine-3-carboxylic acid] | 5.30 to 6.30
COc1cc(=O)n(CC2(O)CCN(C(=O)[C@H](C)CC3CCCCC3)CC23CCCC3)cc1C(=O)N(C)C (stereo partly drawn) [Example 242, 1-((7-((R)-3-Cyclohexyl-2-methylpropanoyl)-10-hydroxy-7-azaspiro[4.5]decan-10-yl)methyl)-4-methoxy-N,N-dimethyl-6-oxo-1,6-dihydropyridine-3-carboxamide] | 5.30 to 6.30
CC(CC(F)F)C(=O)N1CCC(O)(Cn2cc(C(=O)N(C)C)c(-c3ccccc3)cc2=O)C2(CCCC2)C1 (stereo not drawn) [Example 243, 1-((7-(4,4-Difluoro-2-methylbutanoyl)-10-hydroxy-7-azaspiro[4.5]decan-10-yl)methyl)-N,N-dimethyl-6-oxo-4-phenyl-1,6-dihydropyridine-3-carboxamide] | 4.30 to 5.30
CN(C)C(=O)c1cn(CC2(O)CCN(C(=O)C(C)(C)CC(F)F)CC23CCCC3)c(=O)cc1-c1ccccc1 (stereo not drawn) [Example 244, 1-((7-(4,4-Difluoro-2,2-dimethylbutanoyl)-10-hydroxy-7-azaspiro[4.5]decan-10-yl)methyl)-N,N-dimethyl-6-oxo-4-phenyl-1,6-dihydropyridine-3-carboxamide] | 4.30 to 5.30
CN(C)C(=O)c1cn(CC2(O)CCN(C(=O)c3nc(C(F)(F)F)cs3)CC23CCCC3)c(=O)cc1-c1ccccc1 (stereo not drawn) [Example 245, 1-((10-Hydroxy-7-(4-(trifluoromethyl)thiazole-2-carbonyl)-7-azaspiro[4.5]decan-10-yl)methyl)-N,N-dimethyl-6-oxo-4-phenyl-1,6-dihydropyridine-3-carboxamide] | 4.30 to 5.30
CN(C)C(=O)c1cn(CC2(O)CCN(C(=O)c3csc(C(F)(F)F)n3)CC23CCCC3)c(=O)cc1-c1ccccc1 (stereo not drawn) [Example 246, 1-((10-Hydroxy-7-(2-(trifluoromethyl)thiazole-4-carbonyl)-7-azaspiro[4.5]decan-10-yl)methyl)-N,N-dimethyl-6-oxo-4-phenyl-1,6-dihydropyridine-3-carboxamide] | 4.30 to 5.30
CN(C)C(=O)c1cn(C[C@]2(O)CCN(C(=O)[C@H](CO)CC(F)(F)F)CC23CCCC3)c(=O)cc1-c1ccccc1 [Example 247, 1-(((S)-10-Hydroxy-7-((S)-4,4,4-trifluoro-2-(hydroxymethyl)butanoyl)-7-azaspiro[4.5]decan-10-yl)methyl)-N,N-dimethyl-6-oxo-4-phenyl-1,6-dihydropyridine-3-carboxamide] | > 6.30
O=C(c1cn(C[C@]2(O)CCN(C(=O)[C@H](CO)CC(F)(F)F)CC23CCCC3)c(=O)cc1-c1ccccc1)N1CCOCC1 [Example 248, 1-(((S)-10-Hydroxy-7-((S)-4,4,4-trifluoro-2-(hydroxymethyl)butanoyl)-7-azaspiro[4.5]decan-10-yl)methyl)-5-(morpholine-4-carbonyl)-4-phenylpyridin-2(1H)-one] | > 6.30
O=C(c1cn(C[C@]2(O)CCN(C(=O)[C@H](CO)CC(F)(F)F)CC23CCCC3)c(=O)cc1-c1ccccc1)N1CCNCC1 [Example 249, 1-(((S)-10-Hydroxy-7-((S)-4,4,4-trifluoro-2-(hydroxymethyl)butanoyl)-7-azaspiro[4.5]decan-10-yl)methyl)-4-phenyl-5-(piperazine-1-carbonyl)pyridin-2(1H)-one] | > 6.30
C[C@H](CC(F)(F)F)C(=O)N1CC[C@@](O)(Cn2cc(C(=O)N3CCOCC3)c(-c3ccccc3)cc2=O)C2(CCCC2)C1 [Example 250, 1-(((S)-10-Hydroxy-7-((R)-4,4,4-trifluoro-2-methylbutanoyl)-7-azaspiro[4.5]decan-10-yl)methyl)-5-(morpholine-4-carbonyl)-4-phenylpyridin-2(1H)-one] | > 6.30
C[C@H](CC(F)(F)F)C(=O)N1CC[C@@](O)(Cn2cc(C(=O)N3CCN(C)CC3)c(-c3ccccc3)cc2=O)C2(CCCC2)C1 [Example 251, 1-(((S)-10-Hydroxy-7-((R)-4,4,4-trifluoro-2-methylbutanoyl)-7-azaspiro[4.5]decan-10-yl)methyl)-5-(4-methylpiperazine-1-carbonyl)-4-phenylpyridin-2(1H)-one] | > 6.30
CCOC(=O)c1cn(C[C@]2(O)CCN(C(=O)[C@H](C)CC3CCCCC3)CC23CCCC3)c(=O)cc1-c1ccccc1 [Example 252, Ethyl 1-(((S)-7-((R)-3-cyclohexyl-2-methylpropanoyl)-10-hydroxy-7-azaspiro[4.5]decan-10-yl)methyl)-6-oxo-4-phenyl-1,6-dihydropyridine-3-carboxylate] | > 6.30
